# Test results from PubChem BioAssay (NCI).
#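 Step 1: Grow cells in 96-well plates. Step 2: Expose to compound for 48 hours at 5 concentrations. Step 3: Interpolate endpoints linearly; if unreached, use highest concentration. GI50 marks 50% less growth. TGI is the concentration that stops growth completely.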
# Assays:
# Experiment in all cases: inhibition of tumour cell growth, NCI panel, 48 h
# 786-0 renal = system: 786-0 renal
# A549 NSCLC = system: A549 NSCLC
# ACHN renal = system: ACHN renal
# BT-549 breast = system: BT-549 breast
# CAKI-1 renal = system: CAKI-1 renal
# COLO 205 colon = system: COLO 205 colon
# DU-145 prostate = system: DU-145 prostate
# EKVX NSCLC = system: EKVX NSCLC
# HCC-2998 colon = system: HCC-2998 colon
# HCT-116 colon = system: HCT-116 colon
# HCT-15 colon = system: HCT-15 colon
# HOP-62 NSCLC = system: HOP-62 NSCLC
# HOP-92 NSCLC = system: HOP-92 NSCLC
# HS 578T breast = system: HS 578T breast
# HT29 colon = system: HT29 colon
# IGROV1 ovarian = system: IGROV1 ovarian
# K-562 leukemia = system: K-562 leukemia
# KM12 colon = system: KM12 colon
# LOX IMVI melanoma = system: LOX IMVI melanoma
# M14 melanoma = system: M14 melanoma
# MALME-3M melanoma = system: MALME-3M melanoma
# MCF7 breast = system: MCF7 breast
# MDA-MB-231 breast = system: MDA-MB-231 breast
# MDA-MB-435 = system: MDA-MB-435
# MOLT-4 leukemia = system: MOLT-4 leukemia
# NCI-H226 lung = system: NCI-H226 lung
# NCI-H23 lung = system: NCI-H23 lung
# NCI-H460 lung = system: NCI-H460 lung
# NCI-H522 lung = system: NCI-H522 lung
# NCI/ADR-RES ovarian = system: NCI/ADR-RES ovarian
# OVCAR-3 ovarian = system: OVCAR-3 ovarian
# OVCAR-4 ovarian = system: OVCAR-4 ovarian
# OVCAR-5 ovarian = system: OVCAR-5 ovarian
# OVCAR-8 ovarian = system: OVCAR-8 ovarian
# PC-3 prostate = system: PC-3 prostate
# RXF 393 renal = system: RXF 393 renal
# SF-268 CNS = system: SF-268 CNS
# SF-295 CNS = system: SF-295 CNS
# SK-MEL-2 melanoma = system: SK-MEL-2 melanoma
# SK-MEL-28 melanoma = system: SK-MEL-28 melanoma
# SK-MEL-5 melanoma = system: SK-MEL-5 melanoma
# SK-OV-3 ovarian = system: SK-OV-3 ovarian
# SN12C renal = system: SN12C renal
# SNB-19 CNS = system: SNB-19 CNS
# SNB-75 CNS = system: SNB-75 CNS
# SW-620 colon = system: SW-620 colon
# TK-10 renal = system: TK-10 renal
# U251 CNS = system: U251 CNS
# UACC-257 melanoma = system: UACC-257 melanoma
# UACC-62 melanoma = system: UACC-62 melanoma
# UO-31 renal = system: UO-31 renal
compound,measurement,setting,value
O=C1C=CC(=O)c2cc3cc(CO)ccc3cc21,GI50,786-0 renal,1.74 µM
same,TGI,786-0 renal,3.31 µM
same,GI50,A549 NSCLC,19.3 µM
same,TGI,A549 NSCLC,45.1 µM
same,GI50,ACHN renal,3.22 µM
same,TGI,ACHN renal,10.8 µM
same,GI50,BT-549 breast,12.9 µM
same,TGI,BT-549 breast,25.7 µM
same,GI50,CAKI-1 renal,3.48 µM
same,TGI,CAKI-1 renal,10.3 µM
same,GI50,COLO 205 colon,11.1 µM
same,TGI,COLO 205 colon,49.5 µM
same,GI50,DU-145 prostate,1.1 µM
same,TGI,DU-145 prostate,2.54 µM
same,GI50,EKVX NSCLC,14.5 µM
same,TGI,EKVX NSCLC,28.1 µM
same,GI50,HCC-2998 colon,4.42 µM
same,TGI,HCC-2998 colon,14.1 µM
same,GI50,HCT-116 colon,1.82 µM
same,TGI,HCT-116 colon,3.22 µM
same,GI50,HCT-15 colon,15.1 µM
same,TGI,HCT-15 colon,28.4 µM
same,GI50,HOP-62 NSCLC,17.3 µM
same,TGI,HOP-62 NSCLC,31.1 µM
same,GI50,HOP-92 NSCLC,2.76 µM
same,TGI,HOP-92 NSCLC,6.51 µM
same,GI50,HS 578T breast,21.3 µM
same,TGI,HS 578T breast,55.4 µM
same,GI50,HT29 colon,10.9 µM
same,TGI,HT29 colon,> 100 µM
same,GI50,IGROV1 ovarian,8.79 µM
same,TGI,IGROV1 ovarian,26 µM
same,GI50,K-562 leukemia,1.06 µM
same,TGI,K-562 leukemia,3.04 µM
same,GI50,KM12 colon,19.3 µM
same,TGI,KM12 colon,51.3 µM
same,GI50,LOX IMVI melanoma,1.94 µM
same,TGI,LOX IMVI melanoma,4.1 µM
same,GI50,M14 melanoma,14.4 µM
same,TGI,M14 melanoma,27.5 µM
same,GI50,MALME-3M melanoma,11.5 µM
same,TGI,MALME-3M melanoma,26.1 µM
same,GI50,MCF7 breast,14.5 µM
same,TGI,MCF7 breast,33.3 µM
same,GI50,MDA-MB-231 breast,11.5 µM
same,TGI,MDA-MB-231 breast,24.9 µM
same,GI50,MDA-MB-435,10.4 µM
same,TGI,MDA-MB-435,23.6 µM
same,GI50,MOLT-4 leukemia,0.621 µM
same,TGI,MOLT-4 leukemia,> 100 µM
same,GI50,NCI-H226 lung,16.7 µM
same,TGI,NCI-H226 lung,31.5 µM
same,GI50,NCI-H23 lung,15.8 µM
same,TGI,NCI-H23 lung,29.2 µM
same,GI50,NCI-H460 lung,19.1 µM
same,TGI,NCI-H460 lung,39.8 µM
same,GI50,NCI-H522 lung,9.48 µM
same,TGI,NCI-H522 lung,26.4 µM
same,GI50,NCI/ADR-RES ovarian,19.5 µM
same,TGI,NCI/ADR-RES ovarian,36.2 µM
same,GI50,OVCAR-3 ovarian,1.71 µM
same,TGI,OVCAR-3 ovarian,4.2 µM
same,GI50,OVCAR-4 ovarian,5.55 µM
same,TGI,OVCAR-4 ovarian,24.7 µM
same,GI50,OVCAR-5 ovarian,20.5 µM
same,TGI,OVCAR-5 ovarian,55.6 µM
same,GI50,OVCAR-8 ovarian,2.94 µM
same,TGI,OVCAR-8 ovarian,11.2 µM
same,GI50,PC-3 prostate,16.2 µM
same,TGI,PC-3 prostate,34.1 µM
same,GI50,RXF 393 renal,14.6 µM
same,TGI,RXF 393 renal,29.9 µM
same,GI50,SF-268 CNS,16.7 µM
same,TGI,SF-268 CNS,34.7 µM
same,GI50,SF-295 CNS,20 µM
same,TGI,SF-295 CNS,37.8 µM
same,GI50,SK-MEL-2 melanoma,16.8 µM
same,TGI,SK-MEL-2 melanoma,32.8 µM
same,GI50,SK-MEL-28 melanoma,29.5 µM
same,TGI,SK-MEL-28 melanoma,> 100 µM
same,GI50,SK-MEL-5 melanoma,10.9 µM
same,TGI,SK-MEL-5 melanoma,22.9 µM
same,GI50,SK-OV-3 ovarian,31.9 µM
same,TGI,SK-OV-3 ovarian,> 100 µM
same,GI50,SN12C renal,5.76 µM
same,TGI,SN12C renal,15.8 µM
same,GI50,SNB-19 CNS,20 µM
same,TGI,SNB-19 CNS,66.8 µM
same,GI50,SNB-75 CNS,19.9 µM
same,TGI,SNB-75 CNS,48.6 µM
same,GI50,SW-620 colon,1.51 µM
same,TGI,SW-620 colon,2.91 µM
same,GI50,TK-10 renal,15.5 µM
same,TGI,TK-10 renal,30 µM
same,GI50,U251 CNS,15.4 µM
same,TGI,U251 CNS,28.7 µM
same,GI50,UACC-257 melanoma,12 µM
same,TGI,UACC-257 melanoma,27.2 µM
same,GI50,UACC-62 melanoma,17.9 µM
same,TGI,UACC-62 melanoma,31.8 µM
same,GI50,UO-31 renal,2.35 µM
same,TGI,UO-31 renal,4.58 µM
